Results on seven compounds are retold here after patent US20260138970A1, “MODULATORS OF THE CALCIUM SIGNALING CASCADE” (FONDAZIONE TELETHON ETS, priority 2022, published 2026).

SMILES strings stand for the structures.

Experiment [1] addresses T1, P2RY2 (Rattus norvegicus, UniProt P41232).
T1 construct: endogenous in cells; host or cells: null (parental) FRT cells
The experiment in a line: Fluo-4 Ca2+ assay in null FRT cells with P2RY2 antagonist. The experiment is classed as cell-based. The conditions noted are these: AR-C118925XX 10 μM; UTP 0.25 μM; FIG. 5B. As for the experimental part: Experiments were performed using the microplate reader described for the HS-YFP assay. FRT and HEK293 cells were cultured until confluence in 96-well microplates (3603, Corning). Cells were washed 2 times with PBS (150 μl/wash) and then loaded for 1 h at 37° C. with 5 μM Fluo-4/AM (Thermo Fisher Scientific; catalog number: F23917) in PBS containing 10 mM glucose, 0.5 mM sulfinpyrazone, and 1% fetal bovine serum. After loading, cells were washed 2 times with PBS-glucose-sulfinpyrazone (150 μl/wash) and incubated for 20 min at 37° C. with 60 μl of PBS plus 10 mM glucose and 0.5 mM sulfinpyrazone containing compounds of interest at 10 μM final concentration or vehicle. Each well was assayed individually. Fluo-4 fluorescence (500 nm excitation, 535 nm emission) was detected every 200 ms for 16-40 s. Two seconds after the start of fluorescence recording, the reader automatically injected 165 μl of a modified PBS containing 136 mM KCl instead of NaCl. This solution also contained 10 mM glucose, 0.5 mM sulfinpyrazone, and UTP or SLIGR-NH2 (CAS #171436-38-7) at a final concentration that depended on the specific cell type. […] The Fluo-4 fluorescence increase was quantified using a procedure compiled in Microsoft Excel after background subtraction and normalization for the initial value measured before UTP addition.

Experiment [2] concerns PLC. The experiment in a line: PLC assay in FRT cells expressing PH-PLC-GFP sensor. The experiment is classed as cell-based. The conditions noted are these: pre-incubation with BAPTA/AM; FIG. 3B. As for the experimental part:
FRT cells with stable expression of PLC6-PH-GFP, generated in the laboratory of inventors, were cultured up to subconfluent condition in p-Plate96 microplates (Ibidi). Each well of a 96-well microplate was washed 3 times, leaving 125 μl of phosphate-buffered saline (PBS) containing compounds at 10 μM final concentration or vehicle. After 20 min of incubation at 37° C., microplate was moved on the stage of an inverted microscope equipped with GFP excitation/emission filters, 40×oil immersion objective (Olympus, Segrate, Italy), Lambda DG4 illumination system (Sutter Instrument Co., Novato, CA, USA), Prime cmos camera (Photometrics, Tucson, AZ, USA) and MetaMorph imaging acquisition software (Molecular Devices, Sunnyvale, CA, USA). Time-lapse experiments were carried out with 50 ms exposure time, 20 frame/s rate, and 2.4 min total duration. After 20 s and 90 s, UTP 0.25 μM and 100 μM (final concentrations) was respectively added. Analysis was performed with MetaMorph software, by quantifying GFP fluorescence cytoplasmic accumulation in manually selected single cell regions of interest (ROI). After background subtraction, fluorescence recordings were normalized for the initial value.

For experiment [3], the system named is FRT cells. The experiment in a line: Fluo-4 Ca2+ mobilization assay in parental (null) FRT cells. The experiment is classed as cell-based, rat. The conditions noted are these: for potentiation of the Ca2+ increase elicited by UTP, multiple concentrations: UTP 0.25 μM, compounds 1-80 μM, vs vehicle (DMSO), FIG. 8. As for the experimental part:
Experiments were performed using the microplate reader described for the HS-YFP assay. FRT and HEK293 cells were cultured until confluence in 96-well microplates (3603, Corning). Cells were washed 2 times with PBS (150 μl/wash) and then loaded for 1 h at 37° C. with 5 μM Fluo-4/AM (Thermo Fisher Scientific; catalog number: F23917) in PBS containing 10 mM glucose, 0.5 mM sulfinpyrazone, and 1% fetal bovine serum. […] Each well was assayed individually. Fluo-4 fluorescence (500 nm excitation, 535 nm emission) was detected every 200 ms for 16-40 s. Two seconds after the start of fluorescence recording, the reader automatically injected 165 μl of a modified PBS containing 136 mM KCl instead of NaCl. This solution also contained 10 mM glucose, 0.5 mM sulfinpyrazone, and UTP or SLIGR-NH2 (CAS #171436-38-7) at a final concentration that depended on the specific cell type. For UTP we used: 0.25 μM for FRT; 1 μM for HEKR2; 5 μM for HEK3XKO, HEKR1, and HEKR3. For SLIGR-NH2 we used: 10 μM for HEKR1; 4 μM for HEKR2. These concentrations were chosen to elicit ˜20% of maximal effect based on UTP and SLIGR-NH2 dose-response relationships. The lower agonist concentrations used for HEKR2 cells, compared to HEKR1 cells, are consistent with the higher affinity of ITPR2 for IP3 (16). The Fluo-4 fluorescence increase was quantified using a procedure compiled in Microsoft Excel after background subtraction and normalization for the initial value measured before UTP addition.
In a further experimental setting, experiments were performed using as above the FLUOstar Omega (BMG Labtech, Offenburg, Germany) microplate reader equipped with syringe pumps and optical excitation/emission filters optimized for yellow fluorescent protein (YFP) fluorescence (ET500/20× and ET535/30m, respectively; Chroma Technology Corporation). FRT and Chem-1 cells were cultured until confluence in 96-well microplates (cc3603, Corning). Cells were washed 2 times with PBS (150 μl/wash) and then loaded for 1 h at 37° C. with 5 μM Fluo-4/AM (Thermo Fisher Scientific; catalog number: F23917) in PBS containing 10 mM glucose, 0.5 mM sulfinpyrazone, and 1% fetal bovine serum. […] Each well was assayed individually. Fluo-4 fluorescence (500 nm excitation, 535 nm emission) was detected every 200 ms for 16-40 s. Two seconds after the start of fluorescence recording, the reader automatically injected 165 μl of a modified PBS containing 136 mM KCl instead of NaCl. This solution also contained, in addition to 10 mM glucose and 0.5 mM sulfinpyrazone, the following agonists: UTP (U6625, Merck) or CCK8s (23371, Cayman Chemical). The Fluo-4 fluorescence increase was quantified using a procedure compiled in Microsoft Excel after background subtraction and normalization for the initial value measured before UTP or CCK8s addition.

Experiment [4] concerns TMEM16A. Nature of the experiment: HS-YFP assay in ITPR-defective HEK293 cells transiently transfected with TMEM16A. The experiment is classed as cell-based. The conditions noted are these: ionomycin 1 μM, FIG. 2D.
Experiment [5] deals with ENaC. The experiment in a line: Short-circuit current recordings on human cultured bronchial epithelia, ENaC function. It counts as cell-based. The conditions noted are these: apical addition; ARN7149 10 μM, ARN11391 20 μM, ARN4550 20 μM, UTP 10 nM; FIG. 9. An excerpt:
In a further experimental setting, snapwell supports (cc3801, Corning) carrying differentiated bronchial epithelia generated in vitro were mounted in a vertical chamber resembling an Ussing system with internal fluid circulation (EM-CSYS-8, Physiologic Instruments, San Diego, CA, USA). The apical and basolateral hemichambers were filled with a solution containing (in mM): 126 NaCl, 0.38 KH2PO4, 2.13 K2HPO4, 1 MgSO4, 1 CaCl2), 24 NaHCO3, and 10 glucose. Both sides were continuously bubbled with a gas mixture containing 5% CO2 and 95% air. The temperature of the solution was kept at 37° C. throughout the experiment.
During recordings, the following molecules (in addition to ARN7149, ARN11391, and ARN4550) were added in the apical solution: elastase (SE2093002, Serva); UTP (U6625, Merck); amiloride (A7410, Merck). Transepithelial voltage was short-circuited with a voltage-clamp (VCC MC8, Physiologic Instruments, San Diego, CA, USA) connected to the apical and basolateral chambers via Ag—AgCl electrodes and agar bridges (2% agar in 1 M KCl). The offset between voltage electrodes and the fluid resistance were cancelled before experiments. The resulting short-circuited current from each channel was recorded on a personal computer with the Acquire & Analize 2.3 software (Physiologic Instruments, San Diego, CA, USA).

T1 sequence (P41232 whole entry): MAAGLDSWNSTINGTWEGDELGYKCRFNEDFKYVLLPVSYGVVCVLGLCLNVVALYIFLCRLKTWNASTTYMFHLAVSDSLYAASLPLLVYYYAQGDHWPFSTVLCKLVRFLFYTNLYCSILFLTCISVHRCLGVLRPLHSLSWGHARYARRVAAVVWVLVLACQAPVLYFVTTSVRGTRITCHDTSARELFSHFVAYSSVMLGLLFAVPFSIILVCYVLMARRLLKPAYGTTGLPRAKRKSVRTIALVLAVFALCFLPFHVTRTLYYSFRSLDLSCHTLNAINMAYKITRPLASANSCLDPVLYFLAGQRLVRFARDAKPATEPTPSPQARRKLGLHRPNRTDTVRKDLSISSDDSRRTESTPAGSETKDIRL

As for `Cc1ccc2c(c1)C=Cc1cc(C)ccc1C2c1cn(Cc2ccc(C(=O)Nc3nn[nH]n3)o2)c(=O)[nH]c1=S` [AR-C118925XX], the “effect of UTP alone and of UTP plus potentiators on Ca2+ mobilization” value in experiment [1] is listed as “completely blocked”.

As to `CC(=O)OCOC(=O)CN(CC(=O)OCOC(C)=O)c1ccccc1OCCOc1ccccc1N(CC(=O)OCOC(C)=O)CC(=O)OCOC(C)=O` [BAPTA/AM, 1,2-Bis(2-aminophenoxy)ethane-N,N,N′,N′-tetraacetic acid tetrakis(acetoxymethyl ester), reference compound], the “PLC activity with/without compounds after Ca2+ chelation” value in experiment [2] was “markedly inhibited”.

`O=C(Nc1ccccc1OCC1CCCCO1)C1CCCN(c2ccccn2)C1` (stereo not shown) [compound 6, 1-(2-Pyridyl)-N-[2-(tetrahydropyran-2-ylmethoxy)phenyl]piperidine-3-carboxamide]: in experiment [3], the “potentiation of the Ca2+ increase elicited by UTP, multiple concentrations” value is “dose-dependent potentiation”.

Regarding `C[C@H](CCC(=O)O)C[C@H](C)C[C@H](C)C(=O)/C=C(\O)[C@H](C)C[C@H](C)C/C=C/[C@@H](C)[C@@H](O)[C@@H](C)[C@@H](O)C[C@@H]1CC[C@@](C)([C@H]2CC[C@@](C)([C@@H](C)O)O2)O1` [ionomycin, reference compound], the “activation of TMEM16A when Ca2+ directly increased (HS-YFP)” value in experiment [4] is reported as “large effect”.

Regarding `O=c1ccn([C@@H]2O[C@H](COP(=O)(O)OP(=O)(O)OP(=O)(O)O)[C@@H](O)[C@H]2O)c(=O)[nH]1` [UTP, reference compound], the “ENaC current decay (ENaC inhibition), short-circuit current” value in experiment [5] is “ENaC current decay”.

Turning to `O=C(Nc1ccccc1OCC1CCCCO1)C1CC2C=CC1C2` (stereo not shown) [compound 7, N-[2-(Tetrahydropyran-2-ylmethoxy)phenyl]bicyclo[2.2.1]hept-5-ene-2-carboxamide], the “potentiation of the Ca2+ increase elicited by UTP, multiple concentrations” value in experiment [3] is recorded as “dose-dependent potentiation”.

Consider `COCCN(C(=O)c1cc(OC)c(OC)c(OC)c1)c1nc(-c2ccccc2)cs1` [Eact, reference compound], for which, in experiment [3] (acute addition, compounds 10 μM, Eact 5 μM, FIG. 2B), the “direct Ca2+ mobilization in the absence of UTP (Fluo-4)” value is listed as “elicits Ca^2+ influx”.
